Data taken from article PMC3735939, “The low levels of eicosapentaenoic acid in rat brain phospholipids are maintained via multiple redundant mechanisms” (Journal of Lipid Research, 2013).

What was measured:
Details in all cases: MEP vs vehicle
[1] = Brain acyl-CoA concentrations (LC-MS/MS) in vehicle- or MEP-treated rats; type: in vivo, rat
Description: At 15 weeks of age, 16 rats were randomized to receive vehicle or 10 mg/kg MEP via tail vein catheter as described above. Fifteen minutes post injection, rats were euthanized by head-focused high energy microwave irradiation (13.5 kW for 1.6 s) and brains were excised and sagittally cut for unesterified FAs/lipid mediators and acyl-CoA analyses as described below. Brain hemispheres were homogenized in ethanol to yield a concentration of 100 mg tissue/ml. The unesterified FAs from 100 mg of brain tissue were isolated. The unesterified FA bands were collected and extracted twice from silica by hexane:isopropanol (3:2 by volume) with 5.5% water. Extracted unesterified FAs were dried down with nitrogen gas and added with 100 μl of freshly made pentafluorobenzylbromide (PFB) cocktail consisting of acetonitrile:N,N-diisopropylethylamine:PFB (1 ml:100 μl:10 μl by volume). The mixtures were shaken for 15 min and dried down with nitrogen gas. FA-PFB esters (FAPEs) were reconstituted in 100 μl hexane for GC-MS analysis as described below.
Long chain acyl-CoA was extracted from the brains of vehicle- and MEP-treated rats as well as the brains of radiotracer-infused rats using a modified affinity chromatography method ([40]). Brains were homogenized by a probe sonicator in isopropanol:25 mM KH2PO4:acetonitrile (1:1:2 by volume) with 10 nmol of added internal standard, heptadecanoyl-CoA (17:0-CoA). Subsequently, protein was precipitated from the homogenate by the addition of saturated (NH4)2SO4. […]
Acyl-CoA concentrations were detected using an Agilent 1200 Binary LC pump (Agilent Technologies, Wilmington, DE) equipped with a Zorbax SB-Phenyl column (3 × 50 mm, 3.5 μm spherical size; Chromatographic Specialties, Brockville, ON, Canada). […] Peaks were identified and quantified by mass transitions, compound specific parameters, and standard curves of authentic acyl-CoA standards (Avanti, Alabaster, AL) (supplementary Fig. I). Concentrations were corrected for percent recovery of heptadecanoyl-CoA and expressed as nmol/g brain.

[2] = Brain total phospholipid and phospholipid class FA concentrations (GC-FID); type: in vivo, rat
From the text: Total lipids from one brain hemisphere and from plasma were extracted by the method of Folch, Lees, and Sloane Stanley ([39]). Isolation of various neutral lipid and phospholipid classes from the total lipid extract was previously described by Chen, Liu, and Bazinet ([6]).
Brain FA concentrations from total and phospholipid classes were quantified as described by Chen, Liu, and Bazinet ([6]).

[3] = In vivo kinetics of FA incorporation and turnover in brain phospholipids (intravenous radiotracer infusion, kinetic model); design: species or system rat
How it was run: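 Rats were given vehicle or MEP 10 mg/kg via tail vein, then radiolabelled fatty acid was infused intravenously for 5 min to steady-state plasma radioactivity while the animals were unanesthetized, with serial jugular blood sampling. They were killed by head-focused microwave irradiation, and brain incorporation was modelled from plasma unesterified fatty acid and acyl-CoA pools.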

Structure (SMILES): CCCCCCCCCCCCCCC1(C(=O)OC)CO1 (stereo not shown) [MEP, methyl-2-tetradecylglycidate, reference compound]
- increase in brain α-linolenoyl-CoA concentration [1]: 49%
- reduction in brain DHA-CoA [1]: 26%
- reduction in brain EPA-CoA [1]: 16%
- reduction in ARA from PtdSer [2]: 8%
- reduction in linoleate from EtnGpl [2]: 9%
- fold increase in esterification of 14C-palmitate into diacylglycerol [3]: 2 fold
- fold increase in esterification of 14C-palmitate into triacylglycerol [3]: 2 fold
- fold increase of t1/2 of EPA in ChoGpl [3]: 1.7 fold
- fold increase of t1/2 of EPA-synthesized DHA in ChoGpl [3]: 4.3 fold
- fold increase of t1/2 of EPA-synthesized DHA in EtnGpl [3]: 2.5 fold
- fold increase of t1/2 of EPA-synthesized DHA in brain total phospholipids [3]: 4.2 fold
- fold increase of t1/2 of EPA-synthesized n-3 DPA in PtdSer [3]: 1.6 fold
- reduction of FFA of DHA in brain total phospholipids [3]: 24 % per day
